Some test systems named below: KM12; SW-620; SK-MEL-28; UACC-257; HL-60; U-251; CAKI-1; 786-0; SNB-19; HOP-92; HCC 2998; BT-549; HCT-15; NCI-H460; A549; MDA-MB-231; NCI-H23; MDA-N; LOX IMVI; CCRF-CEM.
Common to all, as to assay: NCI-60 cell line screen, 48 h

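96-well plates; 48 h exposure; 5 concentrations. Endpoints by linear interpolation between flanking doses. Not reached: highest tested concentration assigned. At the GI50, growth is halved.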 Active and inactive are the calls of the source. No stated cut-off is given here; in the data, active = GI50 up to about 1.1 µM and inactive = higher. Some results are limits rather than exact numbers.

As to `COc1cc2c(cc1OC)-c1cc3cc(OC)c(OC)cc3c(=O)n1CC2`, the GI50 was > 50.5 µM (inactive) with KM12; 9.51 µM (inactive) with SW-620; > 62.1 µM (inactive) in the assay on SK-MEL-28; 26.1 µM (inactive) in the assay with UACC-257; 17.7 µM (inactive) in the assay with HL-60; 17.3 µM (inactive) in the assay with U-251. The GI50 with CAKI-1 is 4.93 µM (inactive); in the assay with 786-0, 23.3 µM (inactive); with SNB-19, 20.7 µM (inactive); in the assay with HOP-92 it was 2.34 µM (inactive); in the assay on HCC 2998, 30.7 µM (inactive); with BT-549 it was 37.3 µM (inactive). The GI50 in the assay on HCT-15 was 38.5 µM; with NCI-H460, > 25.6 µM (inactive); in the assay with A549 it was 41.2 µM (inactive); in the assay with MDA-MB-231 it was 14.8 µM (inactive); with NCI-H23, 46.5 µM (inactive); in the assay with MDA-N, 67.9 µM (inactive). In addition, the values for the GI50 in the assay with LOX IMVI and in the assay with CCRF-CEM were 13.2 µM (inactive) and 3.21 µM (inactive), respectively.
Turning to `CSCCC(NC(=O)OC(C)(C)C)C(=O)NCCNc1ccc(NCCNC(=O)C(CCSC)NC(=O)OC(C)(C)C)c2c1C(=O)c1ccccc1C2=O` (stereo not given), the GI50 in the assay on KM12 was 5.77 µM (inactive); in the assay on SW-620, 2.23 µM (inactive); in the assay with SK-MEL-28 it was 1.85 µM (inactive); in the assay on UACC-257, 5.65 µM (inactive); in the assay on HL-60, 3.01 µM (inactive); in the assay with U-251, 2.88 µM (inactive). In addition, the GI50 with CAKI-1 is 4.75 µM (inactive); in the assay with 786-0, 5.82 µM (inactive); in the assay on SNB-19, 4.75 µM (inactive); in the assay with HOP-92, 3.93 µM (inactive); in the assay on HCC 2998 it was 2.32 µM (inactive); in the assay with BT-549 it was 4.43 µM (inactive). The GI50 was greater than 67.6 µM with HCT-15; 5.85 µM (inactive) in the assay on NCI-H460; 2.84 µM (inactive) with A549; 2.83 µM (inactive) in the assay on MDA-MB-231; 4.51 µM (inactive) in the assay with NCI-H23; 2.74 µM (inactive) with MDA-N. The figures for the GI50 in the assay on LOX IMVI and in the assay with CCRF-CEM were 7.74 µM (inactive) and 3.56 µM (inactive), respectively.
As for `Cc1cc(C)c2c(=O)n(CC(O)CN(Cc3ccccc3)CC(O)Cn3sc4nc(C)cc(C)c4c3=O)sc2n1` (stereo not given), the GI50 with KM12 was 17.2 µM (inactive); in the assay with SW-620 it was 32 µM (inactive); with SK-MEL-28, 27.8 µM (inactive); in the assay on UACC-257, 17.2 µM (inactive); in the assay on HL-60, 33.2 µM (inactive); with U-251, 16.9 µM (inactive). Further, the GI50 with CAKI-1 was 18.8 µM (inactive); in the assay on 786-0, 14.6 µM (inactive); in the assay with SNB-19, 18.5 µM (inactive); in the assay with HOP-92, 17.2 µM (inactive); with HCC 2998 it was 18.8 µM (inactive); with BT-549 it was 23.7 µM (inactive). Besides, the GI50 with HCT-15 was 17.3 µM; in the assay with NCI-H460 it was 19.7 µM (inactive); in the assay on A549, 19.9 µM (inactive); in the assay on MDA-MB-231 it was 17.7 µM (inactive); with NCI-H23 it was 18 µM (inactive); in the assay with MDA-N, 17.9 µM (inactive). Also, the GI50 is 19.2 µM (inactive) in the assay with LOX IMVI and 6.05 µM (inactive) with CCRF-CEM.
Turning to `COc1ccc2c(c1)/C(=C\c1c(C)nc3n1CCS3)C(=O)N2`, the GI50 in the assay with KM12 was 6.34 µM (inactive); in the assay with SW-620, 9.79 µM (inactive); in the assay with SK-MEL-28, 46.8 µM (inactive); in the assay on UACC-257 it was 47.6 µM (inactive); in the assay with HL-60, 15.6 µM (inactive); in the assay on U-251, 22.1 µM (inactive). The GI50 was 33.4 µM (inactive) in the assay with CAKI-1; 35.2 µM (inactive) in the assay on 786-0; 33.8 µM (inactive) in the assay on SNB-19; 34.4 µM (inactive) with HOP-92; 19.2 µM (inactive) in the assay on HCC 2998; 21.1 µM (inactive) in the assay on BT-549. The GI50 is 9.4 µM in the assay with HCT-15; 20 µM (inactive) in the assay with NCI-H460; 24.1 µM (inactive) with A549; 30.5 µM (inactive) in the assay on MDA-MB-231; 24.5 µM (inactive) with NCI-H23; 3.29 µM (inactive) in the assay on MDA-N. Further, the GI50 in the assay with LOX IMVI is 26.5 µM (inactive); with CCRF-CEM it was 24.7 µM (inactive).
Regarding `CC1OC23CCCCC2C(C#N)(C#N)C1(C#N)C(=N)O3` (stereo not given), the GI50 is 24.3 µM (inactive) in the assay on KM12; 8.75 µM (inactive) with SW-620; 21.7 µM (inactive) in the assay with SK-MEL-28; 18 µM (inactive) in the assay on UACC-257; 4.21 µM (inactive) in the assay on HL-60; 22.8 µM (inactive) with U-251. Moreover, the GI50 was 6.9 µM (inactive) in the assay with CAKI-1; 12.8 µM (inactive) with 786-0; 22.8 µM (inactive) in the assay on SNB-19; 13.8 µM (inactive) with HOP-92; 25.5 µM (inactive) in the assay on HCC 2998; 17.7 µM (inactive) in the assay on BT-549. Moreover, the GI50 is 15.3 µM in the assay on HCT-15; 17.9 µM (inactive) in the assay on NCI-H460; 96.2 µM (inactive) in the assay on A549; 15.7 µM (inactive) with MDA-MB-231; 21 µM (inactive) in the assay with NCI-H23; 18.4 µM (inactive) in the assay with MDA-N. In addition, the GI50 in the assay on LOX IMVI was 17.6 µM (inactive); in the assay on CCRF-CEM it was 5.94 µM (inactive).
In the case of `COc1ccc(/C=C/c2nccc3ccccc23)cc1OC`, the GI50 in the assay on KM12 is 8.13 µM (inactive); in the assay on SW-620 it was > 10 µM (inactive); with SK-MEL-28, > 10 µM (inactive); with UACC-257, > 10 µM (inactive); in the assay with HL-60, > 10 µM (inactive); in the assay with U-251, > 10 µM (inactive). Moreover, the GI50 is > 10 µM (inactive) in the assay with CAKI-1; > 10 µM (inactive) in the assay on 786-0; > 10 µM (inactive) in the assay with SNB-19; 6.17 µM (inactive) in the assay with HOP-92; > 10 µM (inactive) in the assay on HCC 2998; > 10 µM (inactive) with BT-549. Further, the GI50 in the assay on HCT-15 was greater than 10 µM; in the assay on NCI-H460, > 10 µM (inactive); in the assay on A549, > 10 µM (inactive); with MDA-MB-231, 2.77 µM (inactive); in the assay with NCI-H23, 7.21 µM (inactive); in the assay on MDA-N, > 10 µM (inactive). Further, the GI50 is 4.57 µM (inactive) with LOX IMVI and 6.52 µM (inactive) in the assay on CCRF-CEM.
On to `COC(=O)NC(Nc1ccc(C)cc1)(C(F)(F)F)C(F)(F)F`, for which the GI50 with KM12, with SW-620, in the assay with SK-MEL-28, in the assay with UACC-257, with HL-60 and with U-251 was > 100 µM (inactive) each time. In addition, the GI50 with CAKI-1, in the assay on 786-0, in the assay with SNB-19, in the assay on HOP-92, with HCC 2998 and in the assay with BT-549 was > 100 µM (inactive) throughout. Further, the GI50 in the assay with HCT-15 was greater than 100 µM; with NCI-H460 it was > 100 µM (inactive); in the assay on A549 it was > 100 µM (inactive); with MDA-MB-231 it was > 100 µM (inactive); in the assay on NCI-H23, > 100 µM (inactive); with MDA-N it was > 100 µM (inactive). For the same molecule, the GI50 in the assay with LOX IMVI and with CCRF-CEM was > 100 µM (inactive) throughout.
As to `CC(C)(O)C1OCC(C2CCC3(C)C4=CCC5C(C)(C)C(O)CCC5(C)C4CCC23C)CC1O` (stereo not given), the GI50 in the assay on KM12 is 14 µM (inactive); in the assay on SW-620 it was 15.2 µM (inactive); with SK-MEL-28, 15.8 µM (inactive); with UACC-257, 18.4 µM (inactive); in the assay with HL-60, > 100 µM (inactive); in the assay with U-251, 14.4 µM (inactive). Further, the GI50 is 16 µM (inactive) in the assay on CAKI-1; 14.2 µM (inactive) with 786-0; 16.4 µM (inactive) in the assay with SNB-19; 12.6 µM (inactive) with HOP-92; 16.6 µM (inactive) with HCC 2998; 11.1 µM (inactive) in the assay with BT-549. The GI50 with HCT-15 is 14.8 µM; in the assay on NCI-H460, 13.4 µM (inactive); with A549, 14.1 µM (inactive); with MDA-MB-231 it was 15.3 µM (inactive); in the assay with NCI-H23, 23.2 µM (inactive); in the assay with MDA-N, 16.6 µM (inactive). The GI50 with LOX IMVI is 17.9 µM (inactive); with CCRF-CEM, 26.4 µM (inactive).
Regarding `CCCCCCCCCCC(O)C1CCC(C(O)CCC(O)C2CCC(CCCCCCC[C@H](O)CC3=C[C@@H](C)OC3=O)O2)O1` (stereo not given in full), the GI50 with KM12 was 6.1 µM (inactive); with SW-620, > 51.4 µM (inactive); with SK-MEL-28, > 51.9 µM (inactive); in the assay with UACC-257, < 0.0169 µM (active); in the assay with HL-60, 0.01 µM (active); in the assay on U-251, 10.2 µM (inactive). For the same molecule, the GI50 with CAKI-1 was > 70.8 µM (inactive); in the assay on 786-0 it was 17.3 µM (inactive); in the assay on SNB-19 it was 3.66 µM (inactive); in the assay with HOP-92 it was 11.6 µM (inactive); with HCC 2998, 97.5 µM (inactive); in the assay on BT-549 it was 0.001 µM (active). Further, the GI50 in the assay on HCT-15 was greater than 53.1 µM; in the assay with NCI-H460, > 22.9 µM (inactive); in the assay on A549, 15.1 µM (inactive); in the assay on MDA-MB-231, > 10 µM (inactive); with NCI-H23, 0.01 µM (active); in the assay with MDA-N, > 10 µM (inactive). In addition, the GI50 with LOX IMVI was 14.6 µM (inactive); in the assay with CCRF-CEM, 3.48 µM (inactive).
Consider `CC(C)C1CSC2N1C(=O)C2(OCc1ccccc1)C1CC1` (stereo not given), for which the GI50 is > 100 µM (inactive) with KM12; > 100 µM (inactive) in the assay on SW-620; > 100 µM (inactive) in the assay with SK-MEL-28; > 100 µM (inactive) in the assay on UACC-257; 73.6 µM (inactive) in the assay with HL-60; > 100 µM (inactive) with U-251. For the same molecule, the GI50 with CAKI-1, in the assay on 786-0, in the assay on SNB-19, with HOP-92, in the assay with HCC 2998 and in the assay on BT-549 was > 100 µM (inactive) in each case. Further, the GI50 in the assay with HCT-15 was greater than 100 µM; in the assay with NCI-H460, > 100 µM (inactive); with A549 it was > 100 µM (inactive); with MDA-MB-231 it was > 100 µM (inactive); in the assay with NCI-H23, > 100 µM (inactive); in the assay with MDA-N it was > 100 µM (inactive). Besides, the GI50 in the assay on LOX IMVI and in the assay on CCRF-CEM was > 100 µM (inactive) in each case.

Source of the values: ChEMBL document CHEMBL1201862, “PubChem BioAssay data set” (2004).
